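Five compound concentrations were applied to cells in 96-well plates for 48 hours; endpoints were derived by simple linear interpolation of the resulting dose-response curve. Definition used: TGI = concentration required for complete inhibition of growth.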
Columns and labels:
Test in all cases: NCI tumour cell line growth inhibition, 48 h
[1] = system: 786-0 renal
[2] = system: A498 renal
[3] = system: A549 NSCLC
[4] = system: ACHN renal
[5] = system: BT-549 breast
[6] = system: CAKI-1 renal
[7] = system: CCRF-CEM leukemia
[8] = system: COLO 205 colon
[9] = system: DU-145 prostate
[10] = system: EKVX NSCLC
[11] = system: HCC-2998 colon
[12] = system: HCT-116 colon
[13] = system: HCT-15 colon
[14] = system: HL-60(TB) leukemia
[15] = system: HOP-62 NSCLC
[16] = system: HOP-92 NSCLC
[17] = system: HS 578T breast
[18] = system: HT29 colon
[19] = system: IGROV1 ovarian
[20] = system: K-562 leukemia
[21] = system: KM12 colon
[22] = system: LOX IMVI melanoma
[23] = system: M14 melanoma
[24] = system: MALME-3M melanoma
[25] = system: MCF7 breast
[26] = system: MDA-MB-231 breast
[27] = system: MDA-MB-435
[28] = system: MDA-N
[29] = system: MOLT-4 leukemia
[30] = system: NCI-H226 lung
[31] = system: NCI-H23 lung
[32] = system: NCI-H460 lung
[33] = system: NCI-H522 lung
[34] = system: NCI/ADR-RES ovarian
[35] = system: OVCAR-3 ovarian
[36] = system: OVCAR-4 ovarian
[37] = system: OVCAR-5 ovarian
[38] = system: OVCAR-8 ovarian
[39] = system: PC-3 prostate
[40] = system: RPMI-8226 leukemia
[41] = system: RXF 393 renal
[42] = system: SF-268 CNS
[43] = system: SF-295 CNS
[44] = system: SF-539 CNS
[45] = system: SK-MEL-2 melanoma
[46] = system: SK-MEL-28 melanoma
[47] = system: SK-MEL-5 melanoma
[48] = system: SK-OV-3 ovarian
[49] = system: SN12C renal
[50] = system: SNB-19 CNS
[51] = system: SNB-75 CNS
[52] = system: SR leukemia
[53] = system: SW-620 colon
[54] = system: T-47D breast
[55] = system: TK-10 renal
[56] = system: U251 CNS
[57] = system: UACC-257 melanoma
[58] = system: UACC-62 melanoma
[59] = system: UO-31 renal
[60] = system: DMS 114 small cell lung
[61] = system: DMS 273 small cell lung
[62] = system: M19-MEL melanoma
[63] = system: SNB-78 CNS

Structure (SMILES): Oc1ccc(SCc2cc(O)ccc2O)cc1
- TGI [1]: 36.4 µM
- TGI [2]: > 89.4 µM
- TGI [3]: > 100 µM
- TGI [4]: 26.8 µM
- TGI [5]: 16.5 µM
- TGI [6]: 19.7 µM
- TGI [7]: > 100 µM
- TGI [8]: 38.8 µM
- TGI [9]: > 100 µM
- TGI [10]: 41.7 µM
- TGI [11]: > 68.9 µM
- TGI [12]: 26.1 µM
- TGI [13]: 30.8 µM
- TGI [14]: > 100 µM
- TGI [15]: 43.7 µM
- TGI [16]: > 47.2 µM
- TGI [17]: 97 µM
- TGI [18]: > 100 µM
- TGI [19]: 25.6 µM
- TGI [20]: > 100 µM
- TGI [21]: 46.9 µM
- TGI [22]: > 53.1 µM
- TGI [23]: 33.7 µM
- TGI [24]: 36.2 µM
- TGI [25]: 27.4 µM
- TGI [26]: 36.4 µM
- TGI [27]: 27.1 µM
- TGI [28]: 28.6 µM
- TGI [29]: > 52.9 µM
- TGI [30]: 35.5 µM
- TGI [31]: > 100 µM
- TGI [32]: > 86.7 µM
- TGI [33]: 4.88 µM
- TGI [34]: > 57.5 µM
- TGI [35]: 22.4 µM
- TGI [36]: 18.5 µM
- TGI [37]: 49.5 µM
- TGI [38]: 41.9 µM
- TGI [39]: > 52.7 µM
- TGI [40]: > 100 µM
- TGI [41]: 25.5 µM
- TGI [42]: > 62.7 µM
- TGI [43]: 39 µM
- TGI [44]: 12.4 µM
- TGI [45]: 39.2 µM
- TGI [46]: 46.7 µM
- TGI [47]: 22.5 µM
- TGI [48]: > 96.7 µM
- TGI [49]: 28.1 µM
- TGI [50]: > 80.2 µM
- TGI [51]: > 65.9 µM
- TGI [52]: > 100 µM
- TGI [53]: > 62.8 µM
- TGI [54]: 30.5 µM
- TGI [55]: 33.9 µM
- TGI [56]: 28.4 µM
- TGI [57]: > 50.3 µM
- TGI [58]: 53.2 µM
- TGI [59]: 20.7 µM

Structure (SMILES): Cc1ccc2nc(C(=O)O)c(=O)[nH]c2c1
- TGI [1]: > 100 µM
- TGI [2]: > 100 µM
- TGI [3]: > 100 µM
- TGI [4]: > 100 µM
- TGI [5]: > 100 µM
- TGI [6]: > 100 µM
- TGI [7]: > 100 µM
- TGI [8]: > 100 µM
- TGI [9]: > 100 µM
- TGI [10]: > 100 µM
- TGI [11]: > 100 µM
- TGI [12]: > 100 µM
- TGI [13]: > 100 µM
- TGI [14]: > 100 µM
- TGI [15]: > 100 µM
- TGI [16]: > 100 µM
- TGI [17]: > 100 µM
- TGI [18]: > 100 µM
- TGI [19]: > 100 µM
- TGI [20]: > 100 µM
- TGI [21]: > 100 µM
- TGI [22]: > 100 µM
- TGI [23]: > 100 µM
- TGI [24]: > 100 µM
- TGI [25]: > 100 µM
- TGI [26]: > 100 µM
- TGI [27]: > 100 µM
- TGI [28]: > 100 µM
- TGI [29]: > 100 µM
- TGI [30]: > 100 µM
- TGI [31]: > 100 µM
- TGI [32]: > 100 µM
- TGI [33]: > 100 µM
- TGI [34]: > 100 µM
- TGI [35]: > 100 µM
- TGI [36]: > 100 µM
- TGI [37]: > 100 µM
- TGI [38]: > 100 µM
- TGI [39]: > 100 µM
- TGI [40]: > 100 µM
- TGI [41]: > 100 µM
- TGI [42]: > 100 µM
- TGI [43]: > 100 µM
- TGI [44]: > 100 µM
- TGI [45]: > 100 µM
- TGI [46]: > 100 µM
- TGI [47]: > 100 µM
- TGI [48]: > 100 µM
- TGI [49]: > 100 µM
- TGI [50]: > 100 µM
- TGI [52]: > 100 µM
- TGI [53]: > 100 µM
- TGI [54]: > 100 µM
- TGI [55]: > 100 µM
- TGI [56]: > 100 µM
- TGI [57]: > 100 µM
- TGI [58]: > 100 µM
- TGI [59]: > 100 µM

Structure (SMILES): COc1ccc(OC)c2c(=O)c3ccccc3[nH]c12
- TGI [2]: > 100 µM
- TGI [3]: > 100 µM
- TGI [7]: > 100 µM
- TGI [60]: > 100 µM
- TGI [61]: > 100 µM
- TGI [10]: > 100 µM
- TGI [12]: > 100 µM
- TGI [14]: > 100 µM
- TGI [15]: > 100 µM
- TGI [16]: > 100 µM
- TGI [18]: > 100 µM
- TGI [19]: > 100 µM
- TGI [21]: > 100 µM
- TGI [23]: > 100 µM
- TGI [62]: > 100 µM
- TGI [29]: > 100 µM
- TGI [30]: 94.1 µM
- TGI [31]: > 100 µM
- TGI [32]: > 100 µM
- TGI [33]: > 100 µM
- TGI [37]: > 100 µM
- TGI [38]: > 100 µM
- TGI [41]: > 100 µM
- TGI [42]: > 100 µM
- TGI [46]: > 100 µM
- TGI [48]: > 100 µM
- TGI [50]: > 100 µM
- TGI [63]: > 100 µM
- TGI [52]: > 100 µM
- TGI [55]: > 100 µM
- TGI [56]: > 100 µM
- TGI [57]: > 100 µM
- TGI [58]: > 100 µM
- TGI [59]: > 100 µM
